Data on 4 compounds can be found in ChEMBL document CHEMBL1145939, “Analyses of activity for factor Xa inhibitors based on Monte Carlo simulations” (J Med Chem, 2003).

This experiment addresses Coagulation factor X (Homo sapiens, UniProt P00742). Kind of experiment: Inhibition of human Coagulation factor X was determined.

Each structure is given as a SMILES string.

Chain of Coagulation factor X (P00742 41-179 limits assumed): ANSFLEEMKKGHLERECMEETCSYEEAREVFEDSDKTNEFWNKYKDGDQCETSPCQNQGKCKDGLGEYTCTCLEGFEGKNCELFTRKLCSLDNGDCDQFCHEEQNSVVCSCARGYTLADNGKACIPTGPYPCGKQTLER
Chain of Coagulation factor X (P00742 235-488 limits assumed): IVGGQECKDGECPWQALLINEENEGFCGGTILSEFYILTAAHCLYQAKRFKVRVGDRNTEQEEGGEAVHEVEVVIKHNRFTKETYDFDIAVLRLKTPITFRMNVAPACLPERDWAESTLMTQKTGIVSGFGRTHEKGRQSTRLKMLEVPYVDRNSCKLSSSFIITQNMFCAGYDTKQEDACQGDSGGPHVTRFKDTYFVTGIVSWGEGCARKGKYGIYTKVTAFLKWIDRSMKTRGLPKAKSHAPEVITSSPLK

In turn, `Cc1c(F)c(Oc2cccc(CC(=O)C(C)C)c2)nc(Oc2cccc(C(=N)N)c2)c1F` displayed a Ki of 2.1 µM. This lies in the single-digit micromolar range.

`CC(=O)Cc1cccc(Oc2nc(Oc3cccc(C(=N)N)c3)c(F)c(C)c2F)c1` returned a Ki of 1.4 µM.

In the case of `CN1CC(C)(C)N=C1c1cccc(Oc2cc(C(=O)O)cc(Oc3cc(C(=N)N)ccc3O)n2)c1`, affinity was put at a Ki of 0.81 µM.

Take `Cc1c(F)c(Oc2cccc(C(=N)N)c2)nc(Oc2cccc(N3CCCCC3)c2)c1F`: the Ki turned out to be 0.65 µM.
